Series [1] deals with SW1990. In words: Induction of apoptosis in human SW1990 cells assessed as viable cells at 0.5 uM incubated for 6 days by Annexin V/PI staining based flow cytometry (reference value: 92.93 %). It counts as functional. Particulars: SW1990, 144 h, time 6 day, read-out: Activity. A general note: Flow cytometry measures light scatter and fluorescence of single cells or particles in a stream.

Series [2] concerns SW1990. In words: Induction of apoptosis in human SW1990 cells assessed as early apoptotic cells at 0.5 uM incubated for 6 days by Annexin V/PI staining based flow cytometry (reference value: 4.55 %). In kind it is functional. Particulars: time 6 day.
Series [3] concerns SW1990. In words: Induction of apoptosis in human SW1990 cells assessed as necrotic cells at 0.5 uM incubated for 6 days by Annexin V/PI staining based flow cytometry (reference value: 0.50 %). In kind it is functional. The note with it: time 6 day.
Series [4] deals with SW1990. In words: Induction of apoptosis in human SW1990 cells assessed as necrotic cells at 1 uM incubated for 6 days by Annexin V/PI staining based flow cytometry (reference value: 0.50 %). In kind it is functional. Particulars: time 6 day.
The test system of series [5] is SW1990. The series is described as follows: Induction of cell cycle arrest at G2/M phase in human SW1990 cells at 0.5 uM incubated for 6 days by PI staining based flow cytometry (reference value: 29.15 %). It counts as functional. The note with it: time 6 day.
Series [6] concerns SW1990. In words: Induction of cell cycle arrest at G0/G1 phase in human SW1990 cells at 1 uM incubated for 6 days by PI staining based flow cytometry (reference value: 49.65 %). In kind it is functional. The note with it: time 6 day.
For series [7], the system named is SW1990. In words: Induction of cell cycle arrest at S phase in human SW1990 cells at 1 uM incubated for 6 days by PI staining based flow cytometry (reference value: 21.20 %). In kind it is functional. Particulars: time 6 day.
In series [8] the test system is SW1990. The series is described as follows: Induction of cell cycle arrest at G0/G1 phase in human SW1990 cells at 2 uM incubated for 6 days by PI staining based flow cytometry (reference value: 49.65 %). Particulars: time 6 day. It counts as functional.
In series [9] the test system is SW1990. The series is described as follows: Induction of cell cycle arrest at S phase in human SW1990 cells at 2 uM incubated for 6 days by PI staining based flow cytometry (reference value: 21.20 %). In kind it is functional. The note with it: time 6 day.
For series [10], the system named is SW1990. The series is described as follows: Induction of cell cycle arrest at G2/M phase in human SW1990 cells at 2 uM incubated for 6 days by PI staining based flow cytometry (reference value: 29.15 %). In kind it is functional. Particulars: time 6 day.
The subject of series [11] is SW1990. The series is described as follows: Inhibition of cell invasion in human SW1990 cells at 0.5 to 2 uM by transwell assay. It counts as functional, cell-based. The note with it: dose 0.5-2 µM.
The subject of series [12] is SW1990. In words: Upregulation of E-cadherin level in human SW1990 cells at 0.5 to 2 uM by Western blot analysis. In kind it is functional, cell-based. The note with it: dose 0.5-2 µM. For orientation: A western blot detects proteins with antibodies after separation by electrophoresis.
Series [13] has as its system SW1990. In words: Antitumor activity in human SW1990 cells assessed as decrease in CD44 level at 0.5 to 2 uM by immunofluorescence based analysis. It counts as functional, cell-based. The note with it: dose 0.5-2 µM.
Series [14] relates to SW1990. The series is described as follows: Antitumor activity against human SW1990 cells xenografted in BALB/c nude mouse model assessed as tumor growth inhibition treated intraperitoneally for 21 days consecutively. In kind it is functional. Particulars: dose 30-60 mg/kg, route ip, time 21.0 day. (In xenograft studies the graft and the host belong to different species.)

A short description of series [15]: Toxicity in BALB/c nude mouse xenografted with human SW1990 cells assessed as drug tolerance at 30 to 60 mg/kg, ip for 21 days consecutively. In kind it is organism-based. Particulars: in vivo, 504 h, dose 30-60 mg/kg, time 21 day.
Series [16] is described as follows: Toxicity in BALB/c nude mouse xenografted with human SW1990 cells assessed as animal mortality at 30 to 60 mg/kg, ip for 21 days consecutively. In kind it is organism-based. The note with it: in vivo, 504 h, dose 30-60 mg/kg, time 21 day.
The nature of series [17]: Toxicity in BALB/c nude mouse xenografted with human SW1990 cells assessed as change in body weight at 30 to 60 mg/kg, ip for 21 days consecutively. In kind it is organism-based. Particulars: in vivo, 504 h, dose 30-60 mg/kg, time 21 day.
Series [18] has as its system SW1990. In words: Antitumor activity against human SW1990 cells xenografted in BALB/c nude mouse model assessed as change in cell contraction treated intraperitoneally for 21 days consecutively by H and E staining based analysis. The note with it: dose 30-60 mg/kg, route ip, time 21.0 day. In kind it is functional.
Series [19] has as its system SW1990. In words: Antitumor activity against human SW1990 cells xenografted in BALB/c nude mouse model assessed as decrease in N-cadherin level at 30 to 60 mg/kg, ip for 21 days consecutively by Western blot analysis. In kind it is functional, organism-based. The note with it: dose 30-60 mg/kg, time 21.0 day.
Series [20] deals with SW1990. The series is described as follows: Antitumor activity against human SW1990 cells xenografted in BALB/c nude mouse model assessed as decrease in Snail level at 30 to 60 mg/kg, ip for 21 days consecutively by Western blot analysis. It counts as functional, organism-based. Particulars: dose 30-60 mg/kg, time 21.0 day.
Series [21] concerns SW1990. The series is described as follows: Antitumor activity against human SW1990 cells xenografted in BALB/c nude mouse model assessed as increase in E-cadherin level at 30 to 60 mg/kg, ip for 21 days consecutively by Western blot analysis. It counts as functional, organism-based. The note with it: dose 30-60 mg/kg, time 21.0 day.
Series [22] has as its system SW1990. In words: Antitumor activity against human SW1990 cells xenografted in BALB/c nude mouse model assessed as decrease in CD44 level at 30 to 60 mg/kg, ip for 21 days consecutively by IHC analysis. In kind it is functional, organism-based. The note with it: dose 30-60 mg/kg, time 21.0 day.

In ChEMBL document CHEMBL5634144, “Design, synthesis and biological evaluation of novel DCLK1 inhibitor containing purine skeleton for the treatment of pancreatic cancer” (Eur J Med Chem, 2023) one finds viability, Activity and inhibition data, which are given here for one compound.

Calls of active or inactive are those of the source. The calls are words filed in the database; no cut-off is given here.

Turning to `COc1cc(N2CCN(C)CC2)ccc1Nc1nc(Nc2ccccc2S(=O)(=O)C(C)C)c2nc[nH]c2n1`, the viability at 0.5 µM in the series on SW1990 [1] was found to be 78.5%. For the same compound, the Activity with SW1990 [2] is given as 9.19%; in the series with SW1990 [3] it was 5.58%; in the series on SW1990 [4], 8.2%; with SW1990 [5] it was 27.55%; with SW1990 [6], 56.78%; in the series with SW1990 [7], 19.75%. Moreover, the Activity was 63.14% in the series with SW1990 [8]; 14.23% in the series on SW1990 [9]; 22.63% in the series on SW1990 [10]; “Non-Toxic” in series [15]; “Non-Toxic” in [16]; “Toxic” in [17]. In the series with SW1990 [18], the Activity result was “Dose-Dependent Effect”. In addition, the inhibition entry with SW1990 [11] is “Active”. The outcome in the series with SW1990 [12], in the series on SW1990 [13], with SW1990 [19], in the series on SW1990 [20], with SW1990 [21] and in the series on SW1990 [22] was Active. For the same compound, the inhibition result in the series on SW1990 [14] was “Dose-Dependent Effect”.
